# Where two headings read alike, the source gives them in different places.
# Key:
# [1] = tested on: Mycobacterium tuberculosis H37Rv in human macrophages THP-1; experiment: Mycobacterium tuberculosis in vitro H37Rv in human macrophages THP-1 inhibition assay (intracellular assay); assay type: cell-based; conditions: read-out: Assay 3 MIC (μM) intracellular
# Text: Assay 3 Mycobacterium tuberculosis In Vitro H37Rv in Human Macrophages THP-1 Inhibition Assay
# This ex-vivo assay may represent physiological conditions that mimic disease and take into consideration the favourable contribution of host cells.
# [2] = tested on: Mycobacterium tuberculosis H37Rv; experiment: Acute Mycobacterium tuberculosis in vivo assay
# [3] = tested on: Mycobacterium tuberculosis H37Rv; experiment: Mycobacterium tuberculosis in vitro H37Rv extracellular inhibition assay (OD readout); assay type: cell-based; conditions: 192 h, read-out: Assay 2 MIC (μM) extracellular
# [4] = biological target: T1, Mycobacterium tuberculosis lysine tRNA synthetase (MtKRS) (Mycobacterium tuberculosis, UniProt P9WFU9); experiment: biochemical; conditions: 40 nM MtKRS, 30 μM ATP, 12 μM L-lysine, 20 hours incubation; read-out: Assay 1 Mtb KRS
# T1 construct: made in house; host or cells: E. coli BL21 (DE3)
# [5] = H37Rv in THP-1 human macrophages
# T1 sequence (P9WFU9 whole entry): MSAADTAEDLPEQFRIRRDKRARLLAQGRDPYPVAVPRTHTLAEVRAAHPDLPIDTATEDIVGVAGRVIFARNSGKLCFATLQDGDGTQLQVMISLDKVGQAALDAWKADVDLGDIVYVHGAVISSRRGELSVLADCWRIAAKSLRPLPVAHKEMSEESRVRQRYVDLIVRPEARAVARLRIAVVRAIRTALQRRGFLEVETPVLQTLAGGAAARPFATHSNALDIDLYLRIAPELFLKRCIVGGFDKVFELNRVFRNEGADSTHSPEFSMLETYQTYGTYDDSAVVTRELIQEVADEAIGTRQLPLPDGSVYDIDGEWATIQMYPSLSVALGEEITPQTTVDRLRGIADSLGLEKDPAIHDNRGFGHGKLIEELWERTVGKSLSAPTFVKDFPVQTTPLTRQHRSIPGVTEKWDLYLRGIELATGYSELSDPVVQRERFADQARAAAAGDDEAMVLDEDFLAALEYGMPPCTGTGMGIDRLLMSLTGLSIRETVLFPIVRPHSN
Compound,MIC ([1]; H37RV) [µM],"Log PCR reduction in acute efficacy study @ 50 mg/kg ([2]; C57BL/6 mice, 50 mg/kg oral once a day, day 1 to day 8)","Assay 4 ED99 ([2]; female C57BL/6 mice, intratracheal infection, oral once a day day 1 to day 8, lungs harvested day 9) [mg/kg]",MIC ([3]; H37RV) [µM],IC50 [4] [nM],"MIC [1, 5] [µM]","CFU reduction @12 mg/kg (acute efficacy study) ([2]; C57BL/6 mice, 12 mg/kg oral once a day, day 1 to day 8)","MIC ([3]; H37Rv, 7H9 medium, 8 days, Abs 590 nm) [µM]"
"CCOc1nc(N)nc2c1C(=O)N([C@@H]1CCCCC[C@@H]1O)C2 [Example 46, 2-Amino-4-ethoxy-6-((1R,2S)-2-hydroxycycloheptyl)-6,7-dihydro-5H-pyrrolo[3,4-d]pyrimidin-5-one]",1.1,3,7,0.5,,,,
"CNc1nc(N)nc2c1C(=O)N([C@H]1[C@@H](O)CCCCC1(F)F)C2 [Example 51, 2-Amino-6-((1S,7S)-2,2-difluoro-7-hydroxycycloheptyl)-4-(methylamino)-6,7-dihydro-5H-pyrrolo[3,4-d]pyrimidin-5-one]",0.3,,,1,200,,,
"Nc1nc2c(c(-n3cccn3)n1)C(=O)N([C@H]1[C@@H](O)CCCCC1(F)F)C2 [Example 52, 2-Amino-6-((1S,7S)-2,2-difluoro-7-hydroxycycloheptyl)-4-(1H-pyrazol-1-yl)-6,7-dihydro-5H-pyrrolo[3,4-d]pyrimidin-5-one]",,,,,80,0.06,0.4 (CFU reduction,0.1
"CCOc1cnn(-c2nc(N)nc3c2C(=O)N([C@@H]2CCCC[C@@H]2O)C3)c1 [Example 53, 2-amino-4-(4-ethoxy-1H-pyrazol-1-yl)-6-((1R,2S)-2-hydroxycyclohexyl)-6,7-dihydro-5H-pyrrolo[3,4-d]pyrimidin-5-one]",,,,,300,0.3,,
"CCOc1cnn(-c2nc(N)nc3c2C(=O)N([C@H]2CCCCC2(F)F)C3)c1 [Example 54, (S)-2-amino-6-(2,2-difluorocyclohexyl)-4-(4-ethoxy-1H-pyrazol-1-yl)-6,7-dihydro-5H-pyrrolo[3,4-d]pyrimidin-5-one]",,,,,200,,,

# Reference: patent US20250129084A1, “Compounds” (GlaxoSmithKline Intellectual Property Development Limited, priority 2022, published 2025)
